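Tested at 5 concentrations; 48 h exposure; 96-well plates; endpoints linearly interpolated, else capped at highest concentration. TGI: total growth inhibition.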
Assays:
Assay in all cases: NCI tumour cell line growth inhibition, 48 h
[1] = tested on: UACC-62 melanoma
[2] = tested on: PC-3 prostate
[3] = tested on: SNB-19 CNS
[4] = tested on: DU-145 prostate
[5] = tested on: MALME-3M melanoma
[6] = tested on: OVCAR-4 ovarian
[7] = tested on: MOLT-4 leukemia
[8] = tested on: A498 renal
[9] = tested on: SF-295 CNS
[10] = tested on: NCI-H522 lung
[11] = tested on: COLO 205 colon
[12] = tested on: SR leukemia
[13] = tested on: KM12 colon
[14] = tested on: MCF7 breast
[15] = tested on: HCT-15 colon
[16] = tested on: NCI-H23 lung
[17] = tested on: HL-60(TB) leukemia
[18] = tested on: SF-268 CNS
[19] = tested on: K-562 leukemia
[20] = tested on: OVCAR-8 ovarian
[21] = tested on: SK-MEL-2 melanoma
[22] = tested on: NCI/ADR-RES ovarian
[23] = tested on: MDA-N
[24] = tested on: SN12C renal
[25] = tested on: U251 CNS
[26] = tested on: SK-OV-3 ovarian
[27] = tested on: OVCAR-3 ovarian
[28] = tested on: T-47D breast
[29] = tested on: MDA-MB-231 breast
[30] = tested on: HT29 colon
[31] = tested on: HCT-116 colon
[32] = tested on: HOP-62 NSCLC
[33] = tested on: SK-MEL-28 melanoma
[34] = tested on: A549 NSCLC
[35] = tested on: EKVX NSCLC
[36] = tested on: SK-MEL-5 melanoma
[37] = tested on: NCI-H226 lung
[38] = tested on: UACC-257 melanoma
[39] = tested on: HCC-2998 colon
[40] = tested on: SF-539 CNS
[41] = tested on: HOP-92 NSCLC
[42] = tested on: CCRF-CEM leukemia
[43] = tested on: HS 578T breast
[44] = tested on: MDA-MB-435
[45] = tested on: 786-0 renal
[46] = tested on: BT-549 breast
[47] = tested on: RPMI-8226 leukemia
[48] = tested on: LOX IMVI melanoma
[49] = tested on: ACHN renal
[50] = tested on: IGROV1 ovarian
[51] = tested on: M14 melanoma
[52] = tested on: TK-10 renal
[53] = tested on: NCI-H460 lung

O=C1c2ccccc2C(=O)N1c1nc(-c2ccc(Cl)cc2)cc(N2N=C(c3ccc(Br)cc3)CC2c2ccccc2)n1 (stereo not drawn)
TGI [1]: 11.5 µM | TGI [2]: > 27.5 µM | TGI [3]: > 33.8 µM | TGI [4]: > 23.3 µM | TGI [5]: > 60.6 µM | TGI [6]: > 33 µM | TGI [7]: > 23.7 µM | TGI [8]: 35.4 µM | TGI [9]: 3.65 µM | TGI [10]: 5.51 µM | TGI [11]: 4.84 µM | TGI [12]: 2.42 µM | TGI [13]: > 63.9 µM | TGI [14]: 4.57 µM | TGI [15]: 7.14 µM | TGI [16]: > 22.6 µM | TGI [17]: > 100 µM | TGI [18]: 7.72 µM | TGI [19]: > 100 µM | TGI [20]: > 24.1 µM | TGI [21]: > 42.2 µM | TGI [22]: 6.05 µM | TGI [23]: 4.57 µM | TGI [24]: 17.1 µM | TGI [25]: 5.99 µM | TGI [26]: > 46.1 µM | TGI [27]: 2.65 µM | TGI [28]: 5.26 µM | TGI [29]: 23.3 µM | TGI [30]: 9.66 µM | TGI [31]: > 20.5 µM | TGI [32]: > 23 µM | TGI [33]: 21.4 µM | TGI [34]: 17.4 µM | TGI [35]: 5.99 µM | TGI [36]: 5.02 µM | TGI [37]: 29.8 µM | TGI [38]: > 41.4 µM | TGI [39]: 0.966 µM | TGI [40]: 4.41 µM | TGI [41]: 82.3 µM | TGI [42]: > 29.6 µM | TGI [43]: 20.8 µM | TGI [44]: 2.62 µM | TGI [45]: > 34.1 µM | TGI [46]: 16.8 µM | TGI [47]: 11.7 µM | TGI [48]: 3.78 µM | TGI [49]: > 21.7 µM | TGI [50]: > 32.6 µM | TGI [51]: > 36.1 µM | TGI [52]: > 49 µM | TGI [53]: > 41.9 µM

— PubChem BioAssay (NCI)
